# Measured values: ChEMBL document CHEMBL1201862, “PubChem BioAssay data set” (2004)
#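 Following 48 hours of exposure in 96-well plates, responses at five concentrations were used to interpolate endpoints linearly. The concentration for 50% growth inhibition is given as GI50.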 Calls of active or inactive are those of the source. Rule as the data show it: active = GI50 up to about 1.1 µM and inactive = higher.
# Experiments:
# Experiment in all cases: NCI-60 cell line screen, 48 h
# A498 = tested on: A498
# BT-549 = tested on: BT-549
# HCT-116 = tested on: HCT-116
# Hs-578T = tested on: Hs-578T
# IGROV-1 = tested on: IGROV-1
# M14 = tested on: M14
# MCF7 = tested on: MCF7
# MDA-MB-435 = tested on: MDA-MB-435
# NCI-H460 = tested on: NCI-H460
# PC-3 = tested on: PC-3
# SF-268 = tested on: SF-268
# SK-OV-3 = tested on: SK-OV-3
# SN12C = tested on: SN12C
# SNB-19 = tested on: SNB-19
# SNB-75 = tested on: SNB-75
# SR = tested on: SR
# SW-620 = tested on: SW-620
# T47D = tested on: T47D
# U-251 = tested on: U-251
# UO-31 = tested on: UO-31
Compound,GI50 (A498),GI50 (BT-549),GI50 (HCT-116),GI50 (Hs-578T),GI50 (IGROV-1),GI50 (M14),GI50 (MCF7),GI50 (MDA-MB-435),GI50 (NCI-H460),GI50 (PC-3),GI50 (SF-268),GI50 (SK-OV-3),GI50 (SN12C),GI50 (SNB-19),GI50 (SNB-75),GI50 (SR),GI50 (SW-620),GI50 (T47D),GI50 (U-251),GI50 (UO-31)
CC(=O)Nc1ccc2c3c(cc(O)c2c1)N(C(=O)CCCCC(=O)N1CC(CCl)c2c1cc(O)c1cc(NC(C)=O)ccc21)CC3CCl (centres undefined),0.127 µM (active),0.183 µM (active),0.125 µM (active),0.423 µM (active),0.352 µM (active),0.083 µM (active),< 0.01 µM (active),0.186 µM (active),< 0.01 µM (active),0.526 µM (active),< 0.0141 µM (active),0.34 µM (active),0.154 µM (active),0.0436 µM (active),< 0.0395 µM (active),< 0.01 µM (active),0.518 µM (active),0.0129 µM (active),0.0285 µM (active),3.53 µM (inactive)
COC(OC)C(O)C1OC=CC1n1cnc2c(N)ncnc21 (centres undefined),> 100 µM (inactive),> 100 µM (inactive),> 100 µM (inactive),> 100 µM (inactive),> 100 µM (inactive),,> 100 µM (inactive),> 100 µM (inactive),> 100 µM (inactive),> 100 µM (inactive),> 100 µM (inactive),> 100 µM (inactive),> 100 µM (inactive),,18.3 µM (inactive),> 100 µM (inactive),> 100 µM (inactive),> 100 µM (inactive),> 100 µM (inactive),0.792 µM (active)
Cc1ccc([N+](=O)[O-])cc1S(=O)(=O)Nc1ccc(C2=NOC(c3ccccc3O)C2)cc1 (centres undefined),2.84 µM (inactive),6.27 µM (inactive),4.54 µM (inactive),9.98 µM (inactive),7.43 µM (inactive),2.19 µM (inactive),3.33 µM (inactive),1.01 µM (active),4.09 µM (inactive),4.74 µM (inactive),8.61 µM (inactive),15.3 µM (inactive),12.3 µM (inactive),3.31 µM (inactive),3.6 µM (inactive),0.577 µM (active),4.18 µM (inactive),6 µM (inactive),,< 0.01 µM (active)
O=C(c1cc(Cl)cc(Cl)c1)N(C(=S)OC12CC3CC(CC(C3)C1)C2)c1ccccc1,34.9 µM (inactive),50.2 µM (inactive),28.1 µM (inactive),48.9 µM (inactive),,22.7 µM (inactive),30.1 µM (inactive),42.2 µM (inactive),35.3 µM (inactive),35.2 µM (inactive),52.8 µM (inactive),32.5 µM (inactive),36.5 µM (inactive),45.6 µM (inactive),61 µM (inactive),43.1 µM (inactive),39.5 µM (inactive),61.2 µM (inactive),33 µM (inactive),25.1 µM (inactive)
C[C@@H](CCO)OC1OC(COC(=O)C(C)(C)C)C(OC(=O)C(C)(C)C)C(OC(=O)C(C)(C)C)C1OC(=O)C(C)(C)C (some centres undefined),> 100 µM (inactive),73.5 µM (inactive),18 µM (inactive),20.7 µM (inactive),28.2 µM (inactive),56.5 µM (inactive),15.1 µM (inactive),34.5 µM (inactive),16.1 µM (inactive),22.2 µM (inactive),50.6 µM (inactive),58.7 µM (inactive),22.1 µM (inactive),12.6 µM (inactive),32.1 µM (inactive),84.7 µM (inactive),51.1 µM (inactive),> 100 µM (inactive),16.7 µM (inactive),
Cc1cc(C)c(C[C@H]2COC(=O)[C@]2(O)Cc2c(C)cc(C)cc2C)c(C)c1,14.6 µM (inactive),18.4 µM (inactive),20.7 µM (inactive),17.7 µM (inactive),,18.3 µM (inactive),18.1 µM (inactive),18.3 µM (inactive),16.8 µM (inactive),15.1 µM (inactive),14.9 µM (inactive),17.9 µM (inactive),19.4 µM (inactive),21.6 µM (inactive),19.4 µM (inactive),41.5 µM (inactive),20.9 µM (inactive),4.67 µM (inactive),18.9 µM (inactive),19.6 µM (inactive)
